According to ChEMBL document CHEMBL6092154, “Design, synthesis, and evaluation of a novel TRAIL-activated HDAC6 inhibitor for the treatment of pulmonary fibrosis” (Bioorg Med Chem, 2024):
Active and inactive are the calls of the source. No cut-off for these calls is given here.

Key:
Mus musculus [1] = assay: Anti-pulmonary fibrosis activity in bleomycin-induced idiopathic pulmonary fibrosis C57BL/6J mouse model assessed as decrease in collagen I protein expression in lung at 25 mg/kg, ig administered daily via gavage measured after 14 days by western blot analysis; type: functional, organism-based; details: time 14.0 day
[2] = biological target: Histone deacetylase 1 (Homo sapiens) (UniProt Q13547); assay: Inhibition of HDAC1 (unknown origin) at 1 uM incubated for 30 mins by fluorometric analysis
Sequence of Histone deacetylase 1 (Homo sapiens) (Q13547 whole entry): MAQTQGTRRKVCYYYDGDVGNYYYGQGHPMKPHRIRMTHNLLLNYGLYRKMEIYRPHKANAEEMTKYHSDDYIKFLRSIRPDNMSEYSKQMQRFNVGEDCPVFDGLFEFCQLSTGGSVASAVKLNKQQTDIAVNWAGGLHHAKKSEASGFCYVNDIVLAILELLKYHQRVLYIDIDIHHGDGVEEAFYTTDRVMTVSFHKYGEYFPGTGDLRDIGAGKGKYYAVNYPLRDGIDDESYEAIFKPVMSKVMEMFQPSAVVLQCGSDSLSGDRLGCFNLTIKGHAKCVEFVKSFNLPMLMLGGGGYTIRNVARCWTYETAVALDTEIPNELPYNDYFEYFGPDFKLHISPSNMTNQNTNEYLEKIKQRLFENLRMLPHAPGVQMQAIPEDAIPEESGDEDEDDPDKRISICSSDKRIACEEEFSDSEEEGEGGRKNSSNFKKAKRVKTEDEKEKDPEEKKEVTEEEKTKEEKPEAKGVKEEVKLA

Histone deacetylase 3 = Histone deacetylase 3 (Homo sapiens, UniProt O15379); assay: Inhibition of HDAC3 (unknown origin) at 1 uM incubated for 30 mins by fluorometric analysis
Sequence of Histone deacetylase 3 (O15379 whole entry): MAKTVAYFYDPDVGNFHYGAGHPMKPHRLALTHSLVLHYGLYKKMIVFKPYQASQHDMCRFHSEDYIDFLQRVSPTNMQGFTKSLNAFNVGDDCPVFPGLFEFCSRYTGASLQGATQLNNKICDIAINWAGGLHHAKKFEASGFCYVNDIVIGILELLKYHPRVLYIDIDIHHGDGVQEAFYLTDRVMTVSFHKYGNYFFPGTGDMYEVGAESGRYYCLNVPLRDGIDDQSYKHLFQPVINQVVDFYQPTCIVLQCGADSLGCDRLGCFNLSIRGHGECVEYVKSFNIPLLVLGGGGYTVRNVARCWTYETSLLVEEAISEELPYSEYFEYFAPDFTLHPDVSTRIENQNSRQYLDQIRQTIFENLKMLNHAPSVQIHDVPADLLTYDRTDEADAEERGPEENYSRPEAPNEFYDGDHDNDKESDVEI

[3] = biological target: T1, Histone deacetylase 8 (Homo sapiens) (UniProt Q9BY41); assay: Inhibition of HDAC8 (unknown origin) at 1 uM incubated for 30 mins by fluorometric analysis
T1 sequence (whole entry): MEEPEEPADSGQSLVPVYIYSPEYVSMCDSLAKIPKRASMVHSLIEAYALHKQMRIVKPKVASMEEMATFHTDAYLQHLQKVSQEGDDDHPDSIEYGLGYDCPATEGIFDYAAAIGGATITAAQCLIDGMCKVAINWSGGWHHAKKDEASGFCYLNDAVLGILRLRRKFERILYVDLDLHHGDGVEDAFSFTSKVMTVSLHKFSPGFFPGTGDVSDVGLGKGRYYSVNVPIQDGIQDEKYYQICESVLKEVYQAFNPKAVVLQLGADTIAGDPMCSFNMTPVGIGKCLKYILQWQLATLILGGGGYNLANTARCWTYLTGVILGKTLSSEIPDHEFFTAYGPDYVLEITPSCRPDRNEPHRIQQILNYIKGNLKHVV

Histone deacetylase 2 = Histone deacetylase 2 (Homo sapiens, UniProt Q92769); assay: Inhibition of HDAC2 (unknown origin) incubated for 30 mins by fluorometric analysis
Sequence of Histone deacetylase 2 (Q92769 whole entry): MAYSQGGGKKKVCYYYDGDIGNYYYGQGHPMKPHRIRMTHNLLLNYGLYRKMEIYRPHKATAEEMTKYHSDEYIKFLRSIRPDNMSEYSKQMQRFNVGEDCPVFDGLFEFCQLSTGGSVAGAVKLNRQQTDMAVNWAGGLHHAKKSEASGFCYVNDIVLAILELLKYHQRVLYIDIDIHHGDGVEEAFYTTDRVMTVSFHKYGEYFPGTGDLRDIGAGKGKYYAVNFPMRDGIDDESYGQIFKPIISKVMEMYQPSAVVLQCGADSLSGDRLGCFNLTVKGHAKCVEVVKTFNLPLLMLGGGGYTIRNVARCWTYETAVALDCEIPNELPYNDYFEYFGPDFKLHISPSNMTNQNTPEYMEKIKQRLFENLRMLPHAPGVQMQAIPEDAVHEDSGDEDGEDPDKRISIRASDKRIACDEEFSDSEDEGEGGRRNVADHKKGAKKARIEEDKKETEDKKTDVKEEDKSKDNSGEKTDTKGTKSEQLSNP

[4] = biological target: T2, Protein deacetylase HDAC6 (Homo sapiens) (UniProt Q9UBN7); assay: Inhibition of HDAC6 in human RPMI-8226 cells assessed as increase in acetylated histone H4 level at 1 uM incubated for 24 hrs by western blot analysis; type: cell-based
T2 sequence (whole entry): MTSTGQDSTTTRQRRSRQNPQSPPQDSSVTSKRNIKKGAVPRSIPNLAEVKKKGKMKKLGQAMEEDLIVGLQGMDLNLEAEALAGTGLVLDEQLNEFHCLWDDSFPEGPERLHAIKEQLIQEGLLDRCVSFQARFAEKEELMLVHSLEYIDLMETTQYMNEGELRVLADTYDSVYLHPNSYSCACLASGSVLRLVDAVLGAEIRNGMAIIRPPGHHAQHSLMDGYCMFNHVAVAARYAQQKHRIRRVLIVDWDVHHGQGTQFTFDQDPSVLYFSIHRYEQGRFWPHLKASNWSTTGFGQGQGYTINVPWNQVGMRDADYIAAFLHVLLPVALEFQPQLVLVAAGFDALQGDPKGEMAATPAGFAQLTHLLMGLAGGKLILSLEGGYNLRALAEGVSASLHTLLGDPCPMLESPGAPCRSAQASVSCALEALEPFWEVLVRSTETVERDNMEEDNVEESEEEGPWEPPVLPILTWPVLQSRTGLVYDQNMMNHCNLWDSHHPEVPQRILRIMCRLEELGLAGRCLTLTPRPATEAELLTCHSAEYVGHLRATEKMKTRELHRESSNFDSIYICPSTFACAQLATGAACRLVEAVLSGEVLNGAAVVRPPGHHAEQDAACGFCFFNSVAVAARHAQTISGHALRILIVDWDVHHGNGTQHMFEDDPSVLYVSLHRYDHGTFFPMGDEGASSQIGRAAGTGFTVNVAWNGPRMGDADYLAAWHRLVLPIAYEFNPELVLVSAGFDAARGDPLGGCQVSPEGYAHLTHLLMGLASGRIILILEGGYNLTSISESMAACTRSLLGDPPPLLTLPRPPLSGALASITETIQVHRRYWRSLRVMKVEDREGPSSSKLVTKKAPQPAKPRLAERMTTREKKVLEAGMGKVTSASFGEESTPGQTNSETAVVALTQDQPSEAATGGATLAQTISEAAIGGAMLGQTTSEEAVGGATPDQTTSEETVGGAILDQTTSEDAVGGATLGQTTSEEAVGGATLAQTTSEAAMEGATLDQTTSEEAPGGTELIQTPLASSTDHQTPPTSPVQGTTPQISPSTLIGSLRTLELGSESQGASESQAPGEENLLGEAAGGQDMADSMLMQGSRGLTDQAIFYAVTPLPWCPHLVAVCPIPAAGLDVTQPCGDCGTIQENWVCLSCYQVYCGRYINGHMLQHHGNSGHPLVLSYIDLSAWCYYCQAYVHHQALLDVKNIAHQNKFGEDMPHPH

Mus musculus [5] = assay: Anti-pulmonary fibrosis activity in bleomycin-induced idiopathic pulmonary fibrosis C57BL/6J mouse model assessed as decrease in lung damage by measuring decrease in inflammatory cell infiltration in lung at 25 to 50 mg/kg, ig administered daily via gavage and measured on day 14 by Sirius red staining based analysis; type: functional, organism-based; details: dose 25-50 mg/kg, time 14.0 day
[6] = Toxicity against silicosis C57BL/6J mouse model assessed as ALT index in serum at 50 mg/kg, ig administered daily via gavage and measured on day 28; type: organism-based; details: in vivo, po, 672 h, time 28 day
[7] = Toxicity against silicosis C57BL/6J mouse model assessed as effect on heart morphological changes at 50 mg/kg, ig administered daily via gavage and measured on day 28 by Hematoxylin-Eosin staining based analysis; type: organism-based; details: in vivo, po, 672 h, time 28 day

For `O=C(NO)c1ccc(CN2C(=O)C3=C(CCN(Cc4cccc(Cl)c4)C3)N3CCN=C23)cc1`, the Activity (Mus musculus [1]) was “Active; Superior Activity Compared To Positive Drug, Acy-1215”, the inhibition [2] was 56.1% and the inhibition (Histone deacetylase 3) was 50.8%. For the same molecule, the inhibition [3] was 76.2%, the IC50 (Histone deacetylase 2) was 642 nM and the inhibition [4] was “Active; Intensity Of Increase Slightly Lower Than Positive Drug, Acy-1215”. For the same molecule, the Activity (Mus musculus [5]) was “Active”, the Activity [6] was “Non-toxic” and the Activity [7] was “Non-toxic”.
